Reference: article PMC8347608, “Natural Compounds Isolated from Stachybotrys chartarum Are Potent Inhibitors of Human Protein Kinase CK2” (Molecules, 2021)
Where two headings read alike, the source gives them in different places.

Key:
[1] = biological target: human recombinant CK2 holoenzyme (Homo sapiens, UniProt P68400); experiment: CE-based CK2 activity assay (substrate peptide RRRDDDSDDD); format: biochemical
A427 cells [2] = experiment: IncuCyte live-cell imaging, cell growth (confluence); format: cell-based, human; conditions: 48 h
A431 cells [3] = experiment: as above; format: cell-based, human; conditions: 48 h
MCF7 cells [4] = experiment: MTT cell viability assay; conditions: 100 µM, 48 h
[5] = system: MCF7 NucLight Green cells; experiment: IncuCyte live-cell imaging, cell growth (confluence); format: cell-based, human; conditions: 48 h
A431 cells [6] = experiment: MTT cell viability assay; conditions: 48 h; for reduction of cell viability: 10 µM, data not shown
MCF7 cells [7] = system: MCF7 cells
A427 cells [8] = experiment: MTT cell viability assay; conditions: 48 h; for reduction of cell viability: 10 µM, data not shown
[9] = system: MCF7 NucLight Green cells; experiment: EdU cell proliferation assay; format: cell-based, human; conditions: for proliferating cells relative to control: 24 h incubation
in vitro = conditions: human
LDH-5 from rabbit muscle = biological target: T1, LDH-5 from rabbit muscle (Oryctolagus cuniculus, UniProt P13491); experiment: LDH assay (NADH absorption at 340 nm); format: biochemical; conditions: 10 µM compound; data not shown
T1 construct: LDH-5 from rabbit muscle; purchased Roche Diagnostics GmbH, Mannheim, Germany; host or cells: rabbit muscle
Description: A reaction of aldehyde groups appearing at position 4´and 5´ of the phenylspirodrimanes such as acetoxystachybotrydial acetate (Figure 1) with amino acids in proteins has been reported before. The ATP dependency of the IC50 value as shown above is a clear indicator that the interaction between the compound and CK2 seems to be specific and is not due to any non-specific reaction of the dialdehydes of phenylspirodrimanes with amines in a protein. Finally, to rule out this aspect, the inhibitory effect of acetoxystachybotrydial acetate on lactate dehydrogenase (LDH) was determined. Even at a concentration of 10 µM, no inhibition of LDH by acetoxystachybotrydial acetate was observed, indicating no non-specific interaction of acetoxystachybotrydial acetate by coupling to protein amines (data not shown).
For the determination of enzymatic activity of lactate dehydrogenase (LDH), 0.25 µg of LDH-5 from rabbit muscle (Roche Diagnostics GmbH, Mannheim, Germany) was incubated in phosphate buffered saline (PBS) containing 0.25 mM nicotinamide adenine dinucleotide (NADH) and 0.625 mM pyruvate in a total volume of 1 mL at room temperature. Absorption at 340 nm was monitored every 5 s within 5 min. For the determination of inhibitory activity of phenylspirodrimanes towards LDH, acetoxystachybotrydial acetate was added in a final concentration of 10 µM; 0.1% DMSO served as a control.

MTT cell viability assay = conditions: human, cell viability (% of control)
MCF7 cells [10] = system: MCF7 cells; parameters: method as in PMID 30965682; conditions: other human CK2 inhibitor, compared with MCF7 value; cited from earlier work
[11] = nine concentrations 0.001-100 µM, mean ± SD, three independent experiments, read-out: IC50
[12] = read-out: % Inhibition at 10 µM
[13] = 10 µM compound, relative to DMSO control, read-out: % Inhibition at 10 µM

Sequence of human recombinant CK2 holoenzyme (P68400 whole entry): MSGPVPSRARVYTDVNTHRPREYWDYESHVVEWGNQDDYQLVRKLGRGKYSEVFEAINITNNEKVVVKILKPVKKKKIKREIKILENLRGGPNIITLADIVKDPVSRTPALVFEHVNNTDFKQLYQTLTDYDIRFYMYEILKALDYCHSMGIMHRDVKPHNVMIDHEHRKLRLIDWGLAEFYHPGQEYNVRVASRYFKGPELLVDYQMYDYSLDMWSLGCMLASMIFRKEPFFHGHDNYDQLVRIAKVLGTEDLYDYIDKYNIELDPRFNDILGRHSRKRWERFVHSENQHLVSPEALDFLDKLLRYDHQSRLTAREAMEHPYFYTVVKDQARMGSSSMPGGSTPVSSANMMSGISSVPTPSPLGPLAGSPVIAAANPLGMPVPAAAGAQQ
Sequence of human recombinant CK2 holoenzyme (P67870 whole entry partner): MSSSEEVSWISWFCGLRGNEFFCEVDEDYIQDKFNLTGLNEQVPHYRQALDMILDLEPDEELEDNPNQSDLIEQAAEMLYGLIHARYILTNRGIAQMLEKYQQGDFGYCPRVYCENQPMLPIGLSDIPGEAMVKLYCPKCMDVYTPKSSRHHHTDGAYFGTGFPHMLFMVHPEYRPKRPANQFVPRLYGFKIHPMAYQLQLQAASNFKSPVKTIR

With `CC(=O)OC1CCC2(C)C(CCC(C)C23Cc2c(O)cc(C=O)c(C=O)c2O3)C1(C)C` (centres unmarked) [Stachybotrydial acetate] the IC50 [1, 11] was 690 nM, the “cell growth (confluence)” value (A427 cells [2]; 1 µM) was “no effect” and the “cell growth (confluence)” value (A427 cells [2]; 100 µM) was “completely blocked”. The “cell growth (confluence)” value (A431 cells [3]; 1 µM) was “no effect”, the “cell growth (confluence)” value (A431 cells [3]; 100 µM) was “completely blocked” and the “reduction of cell viability (by %)” value (MCF7 cells [4]) was 86%. The “cell growth (confluence)” value ([5]; 1 µM) was “no effect”, the “cell growth (confluence)” value ([5]; 100 µM) was “completely blocked” and the “reduction of cell viability” value (A431 cells [6]) was “not significant”. The “reduction of cell viability (by %)” value (A431 cells [6]; 100 µM) was 93%, the “cell viability (% of control)” value (MCF7 cells [7]; 1 µM) was “increased” and the “reduction of cell viability” value (A427 cells [8]) was “not significant”. For the same compound, the “reduction of cell viability (by %)” value (A427 cells [8]; 100 µM) was 82%.
In the case of `CC(C)=CCCC(C)=CCCC1(C)C=Cc2c(O)cc(C=O)c(C=O)c2O1` (centres unmarked) [Stachybotrychromene C], the IC50 [1, 11] is reported as 320 nM, the “cell growth (confluence)” value (A427 cells [2]; 1 µM) is reported as “no inhibition of growth” and the “cell growth (confluence)” value (A427 cells [2]; 100 µM) is reported as “no other cell line was affected”. For the same compound, the “cell growth (confluence)” value (A431 cells [3]; 1 µM) was “no inhibition of growth”, the “cell growth (confluence)” value (A431 cells [3]; 100 µM) was “no other cell line was affected” and the “proliferating cells relative to control” value ([9]; 100 µM) was “negligible effects”. The “cell growth (confluence)” value ([5]; 1 µM) was “no inhibition of growth”, the “cell growth (confluence)” value ([5]; 100 µM) was “reduce the growth” and the “reduction of cell viability (by %)” value (A431 cells [6]; 1 µM) was 27%. For the same compound, the “reduction of cell viability” value (A431 cells [6]) was “Almost no further reduction”, the “increase of inhibitory effect on cell viability compared with 1 µM” value (A431 cells [6]; 100 µM) was about 10% and the “cell viability (% of control)” value (MCF7 cells [7]; 100 µM) was “not decreased”. For the same compound, the viability at 48 h, 1 µM (in vitro) was 155%, the “reduction of cell viability (by %)” value (A427 cells [8]; 1 µM) was 32% and the “reduction of cell viability” value (A427 cells [8]) was “Almost no further reduction”. For the same compound, the “increase of inhibitory effect on cell viability compared with 1 µM” value (A427 cells [8]; 100 µM) was about 10%.
For `Cc1cc(O)c2c(c1)C(=O)c1cc(O)cc(O)c1C2=O` [emodin, reference compound], the “proliferating cells relative to control” value ([9]; 1 µM) was “no effect”, the “proliferating cells relative to control” value ([9]; 10 µM) was 77% and the “proliferating cells relative to control” value ([9]; 100 µM) was 5%.
Work on `CC(=O)O[C@@H]1[C@H](O)C[C@@]2(C)[C@@H](CC[C@@H](C)[C@]23Cc2c(O)cc(CO)c(C=O)c2O3)C1(C)C` [Stachybotrysin C] yielded an inhibition at 10 µM [1, 12] of 37%.
With `CC(=O)OC1CC2(C)C(CCC(C)C23Cc2c(O)cc(C=O)c(C=O)c2O3)C(C)(C)C1OC(C)=O` (centres unmarked) [Acetoxystachybotrydial acetate] the IC50 [1] was 1860 nM, the Ki [1] was 1410 nM and the mode of inhibition [1] was “ATP competitive mode of inhibition”. The “cell growth (confluence)” value (A427 cells [2]; 1 µM) was “strongly impaired”, the “cell growth (confluence)” value (A431 cells [3]; 1 µM) was “completely blocked” and the “proliferating cells relative to control” value ([9]; 1 µM) was “Less than 1%”. The EC50 ([9]; Homo sapiens, MCF7, 24 h, read-out: EC50 inhibition of cell proliferation) was 390 nM, the “cell growth (confluence)” value ([5]; 1 µM) was “completely blocked” and the “total number of cells (phase contrast images)” value ([5]; 1 µM, compared with 1% DMSO control) was “strongly reduced”. The “inhibition of LDH” value (LDH-5 from rabbit muscle) was “no inhibition”, the viability at 48 h, 1 µM (MTT cell viability assay; 1 µM) was 14% and the viability at 48 h, 100 µM (MTT cell viability assay; 100 µM) was 12%.
`CC(=O)O[C@@H]1[C@H](OC(C)=O)C[C@@]2(C)[C@@H](CC[C@@H](C)[C@]23Cc2c(O)cc(CO)c(C=O)c2O3)C1(C)C` [Stachybonoid D] showed an inhibition at 10 µM [1, 13] of 47%.
`CC(=O)Oc1cc(O)c2c(c1C=O)O[C@@](C)(CC/C=C(\C)CCC=C(C)C)C=C2` [Stachybotrychromene B] showed an inhibition at 10 µM [1, 12] of 47%.
With `C[C@@H]1CC[C@H]2C(C)(C)[C@H](O)CC[C@]2(C)[C@@]12Cc1c(O)cc3c(c1O2)CN(CCO)C3=O` [Stachybotryamide] the inhibition at 10 µM [1, 12] was 21%.
Compound `CC(C)=CCC/C(C)=C/CC[C@@]1(C)C=Cc2c(O)cc(C)c(C=O)c2O1` [Stachybotrychromene A] has an inhibition at 10 µM [1, 12] of 26%.
`C[C@@H]1CC[C@H]2C(C)(C)[C@H](O)CC[C@]2(C)[C@@]12Cc1c(O)cc(CO)c(C=O)c1O2` [L-671] showed an inhibition at 10 µM [1, 13] of 42%.
In the case of `CC(=O)O[C@@H]1CC[C@@]2(C)[C@@H](CC[C@@H](C)[C@]23Cc2c(O)cc(CO)c(C=O)c2O3)C1(C)C` [Stachybotrysin B], the “% Inhibition at 10 µM” value [1] is reported as 50%, the IC50 [1, 11] is reported as 13400 nM and the inhibition at 10 µM ([1]; read-out: % Inhibition at 10 µM, 10 µM compound, relative to DMSO control) is reported as over 50%.
For `COC1=CC(=O)c2c(c(O)c3oc4cc(OC)cc(C)c4c(=O)c3c2O)C1=O` [bikaverin], the EC50 (MCF7 cells [10]) is listed as 1970 nM.
Work on `C[C@@H]1CC[C@H]2C(C)(C)[C@H](O)CC[C@]2(C)[C@@]12Cc1c(O)cc(C=O)c(C=O)c1O2` [Stachybotrydial] yielded an IC50 [1, 11] of 4430 nM.
Compound `CC(=O)O[C@@H]1CC[C@@]2(C)[C@@H](CC[C@@H](C)[C@]23Cc2c(O)cc4c(c2O3)CNC4=O)C1(C)C` [Stachybotrylactam acetate] has an inhibition at 10 µM [1, 12] of 44%.
